Source: publication PMC10818749, “Toxicity Studies of Cardiac-Targeting Peptide Reveal a Robust Safety Profile” (Pharmaceutics, 2024)
Entries after “also recorded” stand apart in the source; their conditions may differ. Ends that are not written are not given here.

Legend:
[1] = tested on: human left ventricular myocyte cell line; assay: Fluorescence-activated cell sorting (FACS) live-dead viability; type: cell-based; settings: 10 µM, 30 min incubation, live-dead stain, biological triplicates and technical quadruplicates (n = 4), vs no treatment or vehicle
Procedure: Fluorescence-Activated Cell Sorting Assays: CTP was tested in a human left ventricular myocyte cell line (Celprogen, Torrance, CA, USA; cat #36044-15) for uptake and assessment of its effects on cell viability. Cells were plated onto 6-well plates at a density of 100,000 cells per well and incubated overnight at 37 °C/5% CO2. The following day media was replaced with fresh media containing 10 µM CTP-Cy5.5, or a random (RAN-CY5.5) peptide. A yellow live-dead stain (Invitrogen, Carlsbad, CA, USA; cat #L34968) was added to all wells, including the negative control or vehicle only treated controls, and cells were incubated for 30 min, after which media aspirated, cells washed 3× with pre-warmed phosphate-buffered saline (PBS), trypsinized, and collected. After collection, cells were washed once with PBS, fixed with 2% paraformaldehyde at room temperature for 10 min, washed once again and resuspended in 1000 µL of PBS. Fluorescence activated cell sorting (FACS) was performed using lasers selected for live-dead and Cy5.5 fluorophores, and 10,000 cells counted in Fortessa. The data generated were gated on the presence of the live-dead stain providing the percent viability of cells [(live/(live + dead cells)) × 100] after treatment with various peptides.

CD1-wildtype mice = assay: Mouse toxicity studies (weight, blood count, serum chemistries); type: in vivo; settings: for alkaline phosphatase level, individual mouse: female
Procedure: Mouse Toxicity Studies: Sixty CD1-wildtype mice (1:1 male to female ratio) were obtained from Charles River and divided into 6 groups of 10, 5 females and 5 males each. Ten control mice were injected with 1X PBS. Treated mice were injected intravenously with a single dose of CTP 150 μg/Kg. Groups of 10 treated mice (5 male, 5 female) were euthanized on day 0 (immediately after injection), 1, 2, 7, and 14 post-injection using inhalational CO2. After euthanasia, the chest cavity was opened, and blood drawn via cardiac puncture for complete blood count and serum chemistries. Following the blood draw, the right atrium was nicked and the whole animal perfusion fixed using 3 mL of formalin injected into the left ventricular apex. The control group was euthanized on day 2. A complete blood count, metabolic profile, and thyroid studies were performed.

cardiomyocytes = settings: cited from earlier work
Source text: Targeted delivery of therapeutics specifically to cardiomyocytes would open up new frontiers for common conditions like heart failure. […] CTP has been used to deliver imaging agents, small drug molecules, photosensitizing nanoparticles, exosomes, and even miRNA to cardiomyocytes. As a natural extension to the development of CTP as a clinically viable ... || Advances in the development of novel technologies in pharmaceutics today necessitate the development of safe and effective targeted delivery methods for cargoes such as nanoparticles, siRNA, drugs, and more. Cell-penetrating peptides (CPPs), which are small, positively charged peptides capable of crossing the cell membrane barrier, provide a promising method for intracellular delivery, which is highly efficient and minimally cytotoxic. Tat (HIV trans-activator of transcription) was the first CPP to be discovered to enter the cell and induce the expression of viral genes ... || Heart disease and cardiac illness continue to be a leading cause of death in the US [16], and, as such, novel treatments for increasingly prevalent conditions such as heart failure and atrial fibrillation are sorely needed.

[2] = female mice, CTP 150 μg/Kg single i.v., Day 0, recovered by Day 1
[3] = female mice, CTP 150 μg/Kg single i.v., vs control
[4] = male mice, CTP 150 μg/Kg single i.v., vs control

In the case of APWHLSSQYSRT [CTP], the cell viability [1] is reported as “remained unchanged”, the toxicity signals overall (CD1-wildtype mice; CTP 150 µg/Kg single dose, except borderline alkaline phosphatase increase in female mice) is reported as “no significant toxicity signals” and the body weight (CD1-wildtype mice; control vs injected mice of each sex, CTP 150 μg/Kg single i.v., two-week course) is reported as “no significant difference”. For the same sequence, the “mean alkaline phosphatase level” value (CD1-wildtype mice; female mice, any of the groups, upper limit of normal not crossed, CTP 150 μg/Kg single i.v.) was ≤ 140 IU/L, the alkaline phosphatase recovery (CD1-wildtype mice; female mice, CTP 150 μg/Kg single i.v.) was “returning to baseline by Day 2” and the platelet count (CD1-wildtype mice; [2]) was “decreased on Day 0; also recorded: significant decrease”. For the same sequence, the “white blood cell count” value (CD1-wildtype mice; [2]) was “decreased on Day 0; also recorded: significant decrease”, the bilirubin (CD1-wildtype mice; female mice, CTP 150 μg/Kg single i.v., only on Day 0, recovered by Day 1) was “significant decrease” and the alanine aminotransferase (CD1-wildtype mice; [3]) was “no significant difference”. The alkaline phosphatase change (CD1-wildtype mice; [3]) was “borderline increase in alkaline phosphatase levels in female mice on Days 0 and 1, with recovery to control levels by Day 2; also recorded: rise in alkaline phosphatase”, the aspartate aminotransferase (CD1-wildtype mice; [3]) was “no significant difference” and the blood urea nitrogen (CD1-wildtype mice; [3]) was “no significant difference”. For the same sequence, the creatinine (CD1-wildtype mice; [3]) was “no significant difference”, the hemoglobin (CD1-wildtype mice; [3]) was “no significant difference” and the “alkaline phosphatase level, individual mouse” value (CD1-wildtype mice; day 0, first of two borderline elevated mice, CTP 150 μg/Kg single i.v.) was 151 IU/L. The “alkaline phosphatase level, individual mouse” value (CD1-wildtype mice; day 0, second of two borderline elevated mice, CTP 150 μg/Kg single i.v.) was 166 IU/L, the calcium levels (CD1-wildtype mice; male mice, CTP 150 μg/Kg single i.v., normalizing at later time-points) was “increased marginally only on Day 0” and the alanine aminotransferase (CD1-wildtype mice; [4]) was “no difference”. For the same sequence, the alkaline phosphatase (CD1-wildtype mice; [4]) was “no difference”, the aspartate aminotransferase (CD1-wildtype mice; [4]) was “no difference” and the blood urea nitrogen (CD1-wildtype mice; [4]) was “decrease; also recorded: significantly lower on Days 0–2”. For the same sequence, the creatinine (CD1-wildtype mice; [4]) was “decrease; also recorded: significantly lower on Days 0–2”, the hemoglobin (CD1-wildtype mice; [4]) was “no difference” and the phosphorous levels (CD1-wildtype mice; [4]) was “no difference”. The platelet count (CD1-wildtype mice; [4]) was “no difference”, the total bilirubin (CD1-wildtype mice; [4]) was “no difference” and the “white blood cell count” value (CD1-wildtype mice; [4]) was “no difference”. The “cell specificity in the heart” value (cardiomyocytes; fibroblasts, endothelial cells, myofibroblasts spared, ref [19]) was “targets cardiomyocytes specifically while sparing the other cells”, the “time to targeting of cardiomyocytes after intravenous injection” value (cardiomyocytes; intravenous injection, "in as little as", ref our prior work) was ~5 min and the “time to transduction of cardiomyocytes after intravenous injection” value (cardiomyocytes; peripheral intravenous injection, "in as little as", ref [6],[15]) was ~15 min. The “blood–brain barrier crossing” value (cardiomyocytes; ref [15]) was “does not cross the blood–brain barrier” and the “uptake by other tissues” value (cardiomyocytes; ref [15]) was “not taken up by the lungs, spleen, or other muscle subtypes”.
